Results reported in patent publication US20240197596A1, “COMPOUNDS USEFUL AS HAIR DYES” (National University of Singapore, priority 2021, published 2024).
“And” between values parts separate entries of the source, which are not always exact repeats. Equal entries are not always repeated. “Also recorded” adds a separate entry of the source. Where two headings read alike, the source gives them in different places.

Tests used:
HaCaT cells = experiment: MTT assay on HaCaT cells; format: cell-based; details: Homo sapiens, 72 h
Experimental: HaCaT (human, adult, low calcium, high temperature, skin keratinocyte) cell suspension was adjusted to 5×10^3 cells per well and seeded in 96-well plates, then incubated at 37° C. with 5% CO2. After 24 h, 10 mM stock solutions of N1-N13 in autoclaved milli-Q water were prepared and serially diluted concentrations were added to the wells. Each concentration was performed in 6-replicates, and seeded wells with only media and no compound were used as controls while wells with only media were used as blanks. The plate was incubated for 72 h, after which 100 μL of MTT reagent was added and the plate was further incubated for 3 h before adding 100 μL of DMSO. Subsequently, the plate was shaken for 20 min, and then absorbance at 570 nm was determined using a Bio-Tek plate reader.

Hair nuance test = experiment: Hair nuance test; design: key to L* / a* / b*: CIELAB L*, a*, b* coordinates; key to ΔE (total colour difference to natural hair): ΔE = √((L*−L0)²+(a*−a0)²+(b*−b0)²) vs untreated hair; details: for eventual colour of bleached hair, Type B: Type B (Oxidative, H2O2) formulation; for eventual colour of bleached hair, Type C: Type C (Oxidative with coupler resorcinol) formulation; for eventual colour of bleached hair, Type A: Type A (Non-oxidative) formulation
Experimental: 35 g of bleaching powder was mixed with 50 mL of developer then applied onto undyed black hair (wrapped in aluminium foil to enhance the bleaching process) and left on for 45 min. The hair was then rinsed with deionized water and shampoo and left to dry. This process was repeated twice.
Hair dye formulations were prepared from N1-N13 according to methods reported (New Journal of Chemistry. 2019; 43(41):16188-99), and with the compositions stated in Table 11 Bleached hair samples were immersed into the respective formulations for 20 min, then air dried for 20 min. Then they were shampooed twice and treated with conditioner for 5 min.
SkinColorCatch (Delfin Technologies Ltd, Kuopio, Finland) was used to measure CIELAB tristimulus L*, a* and b* values of the dyed hair samples and baseline L0, a0, b0 values from untreated hair. The difference in colour tone (ΔH) and the total colour difference (ΔE) were then derived from the values obtained with the equations below:
ΔH=√{square root over ((a*−a0)^2+(b*−b0)^2)}
ΔE=√{square root over ((L*−L0)^2+(a*−a0)^2+(b*−b0)^2)}

[1] = Skin permeation study, Franz diffusion cell; format: in vitro ADME, porcine; details: for Cumulative amount at 8th hour: 1% w/v in deionized water; for Cumulative amount at 8th hour / Permeated through skin into receptor / Recovered in donor compartment / Recovered in skin / Recovered in skin outside diffusion area / Recovered in skin swabs / Recovered on parafilm and in washes / Cumulative amount comparison of PPD vs derivatives (times less than PPD): 8 h; for Permeated through skin into receptor / Recovered in donor compartment / Recovered in skin / Recovered in skin outside diffusion area / Recovered in skin swabs / Recovered on parafilm and in washes: mass balance; for recovery at 8 h, 1 % w/v: pig, end of 8 h, read-out: Total recovery (mean percentage parent compound recovery)
Experimental: In each Franz cell, a piece of pig ear skin prepared to a thickness of […] was clamped securely. 5 mL of PBS solution was added to the receiver compartment which was purged of air bubbles to ensure maximal contact of the skin piece with the solution. Donor solution was prepared by dissolving N1-N13 in deionized water at 1% w/v, and 900 μL was added to the donor compartment. The study was conducted for 8 h, and aliquots of 200 μL were removed from the receiver solution and topped up with fresh PBS at each timepoint of 15-minutes intervals for the first hour and every hour after that.
For mass balance, at the end of 8 h, skin pieces and swabs of the top and bottom surface of the skin were collected and stored in ACN for N1-N13 extraction. Donor solution and receiver solution were also collected.
The aliquot samples collected were subjected to 2-step extraction using 750 μL of dichloromethane (DCM). […] The solvent was dried using the TurboVap, and then reconstituted with 198 μL of 0.1% formic acid in 50% methanol in water and spiked with 2 μL of ANP (internal standard). The processed aliquot samples and mass balance samples were then sent for analysis using LC-MS/MS. The compounds' steady state fluxes and permeability coefficients were then calculated by fitting the solution to Fick's […] of diffusion at the steady state (linear part) of each experimental cumulative amount curve.

THP-1 cells = experiment: MTT assay on THP-1 cells (CV75); format: cell-based, human; details: THP-1 cells, 24 h
Experimental: THP-1 (human acute monocytic leukaemia cell line) cell suspension was adjusted to 1×10^5 cells per well and seeded in 96-well plates. The plate was incubated at 37° C. with 5% CO2. After 24 h, 10 mM stock solutions of N1-N13 were prepared in autoclaved milli-Q water. A series of concentrations diluted in media was prepared and added to the wells. Each concentration was performed in 6-replicates, and seeded wells with only media and no compound were used as controls while wells with only media were used as blanks. The plate was incubated for 24 h, after which 100 μL of MTT reagent was added and the plate was further incubated for 3 h before adding 100 μL of DMSO. Subsequently, the plate was shaken for 20 min, and then absorbance at 570 nm was determined using a Bio-Tek plate reader. Percentage cell viability was calculated and CV75 values were determined.

[2] = HaCaT cells, MTT, read-out: IC50
[3] = Type C (Oxidative with coupler resorcinol)

SMILES | L* (Hair nuance test; Type A (Non-oxidative)) | a* (Hair nuance test; Type A (Non-oxidative)) | b* (Hair nuance test; Type A (Non-oxidative)) | ΔE (total colour difference to natural hair) (Hair nuance test; Type A (Non-oxidative)) | ΔH (difference in colour tone) (Hair nuance test; Type A (Non-oxidative)) | L* (Hair nuance test; Type B (Oxidative)) | a* (Hair nuance test; Type B (Oxidative)) | b* (Hair nuance test; Type B (Oxidative)) | ΔH (difference in colour tone) (Hair nuance test; Type B (Oxidative)) | L* (Hair nuance test; [3]) | a* (Hair nuance test; [3]) | b* (Hair nuance test; [3]) | ΔE (total colour difference to natural hair) (Hair nuance test; [3]) | ΔH (difference in colour tone) (Hair nuance test; [3]) | eventual colour of bleached hair, Type C (Hair nuance test) | Permeated through skin into receptor [1] | Recovered in donor compartment [1] | Recovered in skin [1] | Recovered in skin outside diffusion area [1] | Recovered in skin swabs [1] | further results
COC(COc1cc(N)ccc1N)OC [Compound N1, 2-(2,2-dimethoxyethoxy)benzene-1,4-diamine] | 23 | 12 | 8 | 19.7 | 13.9 | 9 | −0 | −1 | 2.0 | 21 | 18 | 8 | 22.7 | 19.3 | Dark brown | <0.001 % of applied compound dose | 96.7 % of applied compound dose | 0.05 % of applied compound dose | 0.0015 % of applied compound dose | 0.04 % of applied compound dose | IC50 (HaCaT cells; [2]): 508 µM; ΔE (total colour difference to natural hair) (Hair nuance test; Type B (Oxidative)): 2.0; eventual colour of bleached hair, Type B (Hair nuance test): black colour; Cumulative amount at 8th hour [1]: 0.0073 μg/cm^2; Recovered on parafilm and in washes [1]: 0.003 % of applied compound dose; recovery at 8 h, 1 % w/v [1]: 96 ± 1.26%; CV75 (concentration affording 75% cell viability), 1 × CV75 (THP-1 cells): 143.4 µg/mL
COCOc1cc(N)ccc1N [Compound N2, 2-(methoxymethoxy)benzene-1,4-diamine] | 11 | 1 | −2 | 3.7 | 3.16 | 9 | 0 | −1 | 2.0 | 21 | 17 | 6 | 21.4 | 17.7 | Black | <0.001 % of applied compound dose | 98.2 % of applied compound dose | 0.04 % of applied compound dose | 0.0024 % of applied compound dose | 0.05 % of applied compound dose | IC50 (HaCaT cells; [2]): 297 µM; eventual colour of bleached hair, Type A (Hair nuance test): Walnut brown; ΔE (total colour difference to natural hair) (Hair nuance test; Type B (Oxidative)): 2.0; Cumulative amount comparison of PPD vs derivatives (times less than PPD) [1]: 453.7; Recovered on parafilm and in washes [1]: 0.004 % of applied compound dose; recovery at 8 h, 1 % w/v [1]: 98 ± 1.33%; CV75 (concentration affording 75% cell viability), 1 × CV75 (THP-1 cells): 72.4 µg/mL
CCOCOc1cc(N)ccc1N [Compound N3, 2-(ethoxymethoxy)benzene-1,4-diamine] | 19 | 5 | 4 | 11.6 | 5.8 | 9 | 0 | −1 | 2.0 | 17 | −1 | 2 | 8.1 | 1.4 | Brownish black | <0.001 % of applied compound dose | 97.2 % of applied compound dose | 0.01 % of applied compound dose | 0.004 % of applied compound dose | 0.04 % of applied compound dose | IC50 (HaCaT cells; [2]): 457 µM; eventual colour of bleached hair, Type A (Hair nuance test): Black; eventual colour of bleached hair, Type B (Hair nuance test): black colour; Cumulative amount at 8th hour [1]: 0.0088 μg/cm^2 and 0.00875 μg/cm^2; Recovered on parafilm and in washes [1]: 0.005 % of applied compound dose; recovery at 8 h, 1 % w/v [1]: 97 ± 1.05%; CV75 (concentration affording 75% cell viability), 1 × CV75 (THP-1 cells): 115 µg/mL
Nc1ccc(N)c(OCC2CO2)c1 (centres unmarked) [Compound N4, 2-(oxiran-2-ylmethoxy)benzene-1,4-diamine] | 49 | 5 | 29 | 49.1 | 28.4 | 40 | 6 | 16 | 16.2 | 22 | 1 | −13 | 19.1 | 14.0 | vibrant blue colours; also recorded: Admiral blue | <0.001 % of applied compound dose | 98.9 % of applied compound dose | 0.02 % of applied compound dose | 0.005 % of applied compound dose | 0.03 % of applied compound dose | IC50 (HaCaT cells; HaCaT): 578 µM; ΔE (total colour difference to natural hair) (Hair nuance test; Type B (Oxidative)): 35.0; eventual colour of bleached hair, Type B (Hair nuance test): Coffee brown; Cumulative amount at 8th hour [1]: 0.0104 μg/cm^2; Recovered on parafilm and in washes [1]: 0.008 % of applied compound dose; recovery at 8 h, 1 % w/v [1]: 99 ± 1.15%; CV75 (concentration affording 75% cell viability), 1 × CV75 (THP-1 cells): 62.3 µg/mL
COCCOCCOc1cc(N)ccc1N [Compound N5, 2-[2-(2-methoxyethoxy)ethoxy]benzene-1,4-diamine] | 18 | 4 | −1 | 10.0 | 4.5 | 26 | 3.7 | 10.3 | 10.0 | 16 | 0 | −6.7 | 10.4 | 7.7 | vibrant blue colours; also recorded: Indigo | <0.001 % of applied compound dose | 95.3 % of applied compound dose | 0.04 % of applied compound dose | 0.0045 % of applied compound dose | 0.06 % of applied compound dose | IC50 (HaCaT cells; [2]): 43.3 µM; eventual colour of bleached hair, Type A (Hair nuance test): dark brown colour shade; also recorded: Dark cinnamon brown; ΔE (total colour difference to natural hair) (Hair nuance test; Type B (Oxidative)): 19.7; eventual colour of bleached hair, Type B (Hair nuance test): Almond brown; Cumulative amount at 8th hour [1]: 0.0065 μg/cm^2 and 0.00654 μg/cm^2; Cumulative amount comparison of PPD vs derivatives (times less than PPD) [1]: 825.0; Recovered on parafilm and in washes [1]: 0.009 % of applied compound dose; recovery at 8 h, 1 % w/v [1]: 95 ± 1.42%; CV75 (concentration affording 75% cell viability), 1 × CV75 (THP-1 cells): 68.3 µg/mL
